Source: patent publication US6043212A, “Recombinant C140 receptor, its agonists and antagonists, and nucleic acids encoding the receptor” (COR Therapeutics, Inc., priority 1995, dated 2000)
Peptide text beside a SMILES is read from it.

Tested on: rat femoral vein
Experiment: Vasodilation of isolated rat femoral vein contracted with PGF2α (organ bath)
Settings: PGF2α 3×10^-5 M, test substance 10^-5 M
Protocol: This effect was also shown by observing vasodilation as a result of stimulation of the rat femoral vein with the above agonist. Adult Sprague-Dawley rats were killed by exsanguination during diethylether anesthesia and the femoral vein was removed and dissected free from fat and connective tissue. Circular preparations of the vein were mounted in an organ bath (5 ml) on two L-formed metal holders (0.2 mm diameter). One of the metal holders was screwed into one of the levers of a Grass FTO C force displacement transducer. The bathing liquid was Kreb's Ringer solution containing 118 mM NaCl, 4.7 mM KCl, 2.5 mM CaCl2, 1.2 MM MgSO4, 24.8 mM NaHCO3, 1.2 mM KH2 PO4 and 5.6 mM glucose. The bathing fluid was continuously treated with 88.5% oxygen-11.5% CO2; the temperature was held at 37° C. The endothelium was removed by bubbling CO2 through the vessels. The basal tension was between 7.5 and 12 mN. The preparations were equilibrated for at least 1 hr before application of agonist and control substances.

## CC[C@H](C)[C@H](NC(=O)[C@H](CC(C)C)NC(=O)[C@@H](N)CO)C(=O)NCC(=O)N[C@@H](CCCNC(=N)N)C(=O)N[C@@H](CC(C)C)C(=O)O [SLIGRL] (H-SLIGRL-OH)
Endothelium present, FIG. 8a
  Effect on contraction induced by PGF2α: relaxed
Endothelium removed, FIG. 8b
  Effect on contraction induced by PGF2α: not counteracted
